According to patent US9416126B2, “Compounds inhibiting leucine-rich repeat kinase enzyme activity” (Merck Sharp & Dohme Corp., priority 2013, dated 2016):

Biological target: LRRK2(G2019S mutation, GST-LRRK2(amino acids 970-2527)) (Homo sapiens (Human), UniProt Q5S007, G2019S)
Test: LRRK2 Km ATP LanthaScreen Assay
Type: biochemical
Details: Km ATP (184 μM ATP solution), G2019S LRRK2, mean IC50
Procedure: Unless otherwise noted, all LRRK2 IC50 data presented in tables refers to the LRRK2 Km ATP LanthaScreen™ Assay that is described in the Biological Assay section.
The data presented for the 5 mM and Km ATP LanthaScreen™ Assay represents mean IC50 values based on several test results and may have reasonable. deviations depending on the specific conditions and reagents used. Reagents for the LRRK2 5 mM and Km ATP LanthaScreen™ Assay were purchased from Life Technologies Corporation.
LRRK2 Km ATP LanthaScreen™ Assay
a) 400 nl of a 1:2.15 serial dilution of test compound(98 μM top assay concentration) is spotted via Labcyte Echo to certain wells in a 384 well black, untreated plate. Control wells contain 400 nl of either DMSO or 400 nl of a known inhibitor in DMSO.
b) 10 μl of a 2.5 nM LRRK2(G2019S mutation, GST-LRRK2(amino acids 970-2527)) enzyme solution in 1× assay buffer(50 mM Tris pH 8.5, 10 mM MgCl2, 0.01% Brij-35, 1 mM EGTA, 2 mM DTT, 0.05 mM NaVO4) is added to all wells.
c) A 30 minute room temperature incubation is followed by addition of 10 μl of 800 nM fluorescein labeled LRRKtide peptide substrate and 184 μM ATP solution in 1× assay buffer to all wells.
d) After a 60 minute room temperature incubation, 20 μl of TR-FRET Dilution Buffer(Invitrogen PV3756B) containing 4 nM Tb-labeled anti-phospho LRRKtide antibody and 20 mM EDTA is added to all wells.
e) Plates are incubated at room temperature for 1 hour and read on an Envision™ multi-mode plate reader with LanthaScreen™ settings. Results are analysed using Assay Data Analyzer.

Chain of LRRK2(G2019S mutation, GST-LRRK2(amino acids 970-2527)) (Q5S007 970-2527 G2019S): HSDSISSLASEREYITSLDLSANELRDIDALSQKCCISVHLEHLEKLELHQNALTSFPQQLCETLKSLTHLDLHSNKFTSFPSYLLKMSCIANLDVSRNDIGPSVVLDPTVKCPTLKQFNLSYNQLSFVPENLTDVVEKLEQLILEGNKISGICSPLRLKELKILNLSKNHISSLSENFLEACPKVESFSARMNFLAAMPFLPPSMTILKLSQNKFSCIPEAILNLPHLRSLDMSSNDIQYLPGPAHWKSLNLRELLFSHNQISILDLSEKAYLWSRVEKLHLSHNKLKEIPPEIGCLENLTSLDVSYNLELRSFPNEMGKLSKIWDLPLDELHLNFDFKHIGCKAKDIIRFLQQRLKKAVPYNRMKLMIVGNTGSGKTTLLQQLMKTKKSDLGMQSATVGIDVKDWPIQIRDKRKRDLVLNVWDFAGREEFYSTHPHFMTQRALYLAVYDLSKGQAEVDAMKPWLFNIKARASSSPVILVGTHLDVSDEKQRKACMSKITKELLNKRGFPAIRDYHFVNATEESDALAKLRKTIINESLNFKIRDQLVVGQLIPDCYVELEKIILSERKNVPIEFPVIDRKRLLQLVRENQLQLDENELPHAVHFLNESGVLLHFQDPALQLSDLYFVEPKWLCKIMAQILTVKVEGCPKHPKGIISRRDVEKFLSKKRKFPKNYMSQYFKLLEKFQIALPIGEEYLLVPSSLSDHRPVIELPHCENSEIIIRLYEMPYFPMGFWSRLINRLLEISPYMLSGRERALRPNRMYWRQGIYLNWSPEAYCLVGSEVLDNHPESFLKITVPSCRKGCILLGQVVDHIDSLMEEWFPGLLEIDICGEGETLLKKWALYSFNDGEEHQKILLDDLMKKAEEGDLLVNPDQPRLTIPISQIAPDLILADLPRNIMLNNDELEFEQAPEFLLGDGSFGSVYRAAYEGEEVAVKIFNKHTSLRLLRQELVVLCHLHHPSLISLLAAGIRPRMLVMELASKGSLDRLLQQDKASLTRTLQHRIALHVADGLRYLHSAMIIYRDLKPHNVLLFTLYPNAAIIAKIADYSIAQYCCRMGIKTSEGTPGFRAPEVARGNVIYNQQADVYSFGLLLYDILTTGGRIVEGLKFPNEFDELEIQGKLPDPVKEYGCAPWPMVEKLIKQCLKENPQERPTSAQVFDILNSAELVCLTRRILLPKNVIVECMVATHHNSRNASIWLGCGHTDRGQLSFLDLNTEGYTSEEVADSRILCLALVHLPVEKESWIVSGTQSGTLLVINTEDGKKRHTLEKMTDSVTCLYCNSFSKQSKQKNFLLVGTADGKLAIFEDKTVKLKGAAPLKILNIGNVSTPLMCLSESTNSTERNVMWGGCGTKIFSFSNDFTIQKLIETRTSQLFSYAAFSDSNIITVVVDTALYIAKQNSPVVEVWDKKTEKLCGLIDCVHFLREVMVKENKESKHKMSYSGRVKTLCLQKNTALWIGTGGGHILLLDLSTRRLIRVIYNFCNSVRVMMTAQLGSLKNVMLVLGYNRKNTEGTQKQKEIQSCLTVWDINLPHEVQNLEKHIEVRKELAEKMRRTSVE

Compound	IC50 [nM]
Cn1cc(-c2ccc3[nH]nc(-c4cc(N5CCN(C6CC6)CC5)ncn4)c3c2)cn1 [Example A2]	2.62
Cn1cc(-c2ccc3[nH]nc(-c4cc(N5CCOC6(CC6)C5)ncn4)c3c2)cn1 [Example A4]	2.01
CN1CCN(c2cc(-c3n[nH]c4ccc(-c5cnn(C)c5)cc34)ncn2)CC1=O [Example A5]	4.91
CN1CCN(c2cc(-c3n[nH]c4ccc(-c5cnn(C)c5)cc34)ncn2)CC1 [Example A6]	2.85
COCCNc1cc(-c2n[nH]c3ccc(-c4cnn(C)c4)cc23)ncn1 [Example A7]	15
COCCOC1CCN(c2cc(-c3n[nH]c4ccc(-c5cnn(C)c5)cc34)ncn2)CC1 [Example A9]	1.87
Cn1cc(-c2ccc3[nH]nc(-c4cc(N5CC6CCC(C5)O6)ncn4)c3c2)cn1 [Example A10]	5.18
C[C@@H]1CN(c2cc(-c3n[nH]c4ccc(-c5cnn(C)c5)cc34)ncn2)C[C@H](C)O1 [Example A11]	1.4
COC1CCN(c2cc(-c3n[nH]c4ccc(-c5cnn(C)c5)cc34)ncn2)CC1 [Example A12]	2.04
CC(=O)N1CCN(c2cc(-c3n[nH]c4ccc(-c5cnn(C)c5)cc34)ncn2)CC1 [Example A13]	3.15
Cn1cc(-c2ccc3[nH]nc(-c4cc(N5CCNC(=O)C5)ncn4)c3c2)cn1 [Example A14]	2.84
CC(C)N1CCN(c2cc(-c3n[nH]c4ccc(-c5cnn(C)c5)cc34)ncn2)CC1 [Example A15]	0.73
CO[C@H]1CN(c2cc(-c3n[nH]c4ccc(OC(C)C)cc34)ncn2)C[C@@H]1O [Example D1]	9.9
CC(C)Oc1ccc2[nH]nc(-c3cc(N4CCOC(C)(C)C4)ncn3)c2c1 [Example D3]	6.37
CC(C)Oc1ccc2[nH]nc(-c3cc(N4CC[S+]([O-])CC4)ncn3)c2c1 [Example D4]	11.5
CC(C)Oc1ccc2[nH]nc(-c3cc(N4CCC(F)(F)CC4)ncn3)c2c1 [Example D5]	14.8
CC(C)Oc1ccc2[nH]nc(-c3cc(N4CCN(S(C)(=O)=O)CC4)ncn3)c2c1 [Example D7]	7.99
CC(C)Oc1ccc2[nH]nc(-c3cc(N4CC5CCC(C4)O5)ncn3)c2c1 [Example D8]	29.2
CC(C)Oc1ccc2[nH]nc(-c3cc(N4CCN(C)C(=O)C4)ncn3)c2c1 [Example D9]	11.2
CC(C)Oc1ccc2[nH]nc(-c3cc(N4CCN(C5CC5)CC4)ncn3)c2c1 [Example D10]	8.28
[2H]C1([2H])OC([2H])([2H])C([2H])([2H])N(c2cc(-c3n[nH]c4ccc(OC(C)C)cc34)ncn2)C1([2H])[2H] [Example D11]	7.12
CC(C)Oc1ccc2[nH]nc(-c3cc(N4CCOC5(CC5)C4)ncn3)c2c1 [Example D12]	4.04
CC(C)Oc1ccc2[nH]nc(-c3cc(N4CCOCC4C)ncn3)c2c1 (stereo not drawn) [Example D13]	19.8
CCCN1CCN(c2cc(-c3n[nH]c4ccc(OC(C)C)cc34)ncn2)CC1 [Example D14]	8.14

Compound	IC50 [nM]
COCCNc1cc(-c2n[nH]c3ccc(OC(C)C)cc23)ncn1 [Example D16]	26.3
CC(C)Oc1ccc2[nH]nc(-c3cc(N4CCN(C(C)C)CC4)ncn3)c2c1 [Example D17]	7.68
CC(C)Oc1ccc2[nH]nc(-c3cc(N4CCNCC4)ncn3)c2c1 [Example D18]	12.4
COCCN(C)c1cc(-c2n[nH]c3ccc(OC(C)C)cc23)ncn1 [Example D19]	66.5
CC(C)Oc1ccc2[nH]nc(-c3cc(N4CCO[C@@H](C)C4)ncn3)c2c1 [Example D20]	21.4
COCCN1CCN(c2cc(-c3n[nH]c4ccc(OC(C)C)cc34)ncn2)CC1=O [Example D21]	5.59
CC(C)Oc1ccc2[nH]nc(-c3cc(N4CCN(C(=O)C5CC5)CC4)ncn3)c2c1 [Example D22]	4.15
CC(C)Oc1ccc2[nH]nc(-c3cc(N4CCN(S(=O)(=O)C5CC5)CC4)ncn3)c2c1 [Example D23]	5.51
CC(C)Oc1cc2c(-c3cc(N4CCOCC4)ncn3)n[nH]c2cc1F [Example D26]	2.39
CC(C)Oc1ccc2[nH]nc(-c3cc(N4C=CSCC4)ncn3)c2c1 [Example D27]	6.08
CCN1CCN(c2cc(-c3n[nH]c4ccc(OC(C)C)cc34)ncn2)CC1=O [Example D28]	5.6
CC(C)Oc1ccc2[nH]nc(-c3cc(N4CCN(C(C)C)C(=O)C4)ncn3)c2c1 [Example D29]	5.28
CO[C@@H]1CCN(c2cc(-c3n[nH]c4ccc(OC(C)C)cc34)ncn2)C1 [Example D30]	7.47
CO[C@H]1CCN(c2cc(-c3n[nH]c4ccc(OC(C)C)cc34)ncn2)C1 [Example D31]	8.79
CC(C)Oc1ccc2[nH]nc(-c3cc(N4CCN(CCF)C(=O)C4)ncn3)c2c1 [Example D33]	3.3
CCCN1CCN(c2cc(-c3n[nH]c4ccc(OC(C)C)cc34)ncn2)CC1=O [Example D34]	4.39
CC(C)Oc1cc2c(-c3cc(N4C[C@H](F)[C@@H](F)C4)ncn3)n[nH]c2cc1F [Example D35]	4.78
CCN1CCN(c2cc(-c3n[nH]c4cc(F)c(OC(C)C)cc34)ncn2)CC1=O [Example D36]	4.16
CC(C)Oc1cc2c(-c3cc(N4CCNC(=O)C4)ncn3)n[nH]c2cc1F [Example D37]	2.89
CC(C)Oc1cc2c(-c3cc(N4CCO[C@@H](C)C4)ncn3)n[nH]c2cc1F [Example D38]	5.01
CC(C)Oc1cc2c(-c3cc(N4CCO[C@H](C)C4)ncn3)n[nH]c2cc1F [Example D39]	2.87
CC(C)Oc1cc2c(-c3cc(N4CCOCC4C)ncn3)n[nH]c2cc1F (stereo not drawn) [Example D40]	5.54
CC(C)Oc1ccc2[nH]nc(-c3cc(N4C[C@H](O)[C@@H](O)[C@@H]4C)ncn3)c2c1 [Example D42]	18.1
CC(C)Oc1ccc2[nH]nc(-c3cc(N4CC[C@@H](N)C4)ncn3)c2c1 [Example D43]	8.78

Compound	IC50 [nM]
CC(C)Oc1ccc2[nH]nc(-c3cc(N4CC[C@H](N)C4)ncn3)c2c1 [Example D44]	6.68
CC(C)Oc1cc2c(-c3cc(N4CCN(C5CC5)CC4)ncn3)n[nH]c2cc1F [Example D45]	3.99
CCN1CCN(c2cc(-c3n[nH]c4cc(F)c(OC(C)C)cc34)ncn2)CC1 [Example D46]	2.97
CC(C)Oc1cc2c(-c3cc(N4CC5CCC(C4)O5)ncn3)n[nH]c2cc1F [Example D47]	14.6
CC(C)Oc1ccc2[nH]nc(-c3cc(N4CCC5(CCCO5)CC4)ncn3)c2c1 [Example D49]	4.13
CC(C)Oc1cc2c(-c3cc(N4CCN(C)[C@@H](C)C4)ncn3)n[nH]c2cc1F [Example D50]	1.2
CC(C)Oc1cc2c(-c3cc(N4CCN(C)[C@H](C)C4)ncn3)n[nH]c2cc1F [Example D51]	1.3
CC(C)Oc1ccc2[nH]nc(-c3cc(N4C[C@H](N)C[C@@H]4C)ncn3)c2c1 [Example D52]	11.1
CCC(=O)N1CCN(c2cc(-c3n[nH]c4ccc(OC(C)C)cc34)ncn2)CC1 [Example D53]	4.26
CC(C)Oc1ccc2[nH]nc(-c3cc(N4C[C@@H]5C[C@H]4CO5)ncn3)c2c1 [Example D54]	5.94
CC(C)Oc1ccc2[nH]nc(-c3cc(N4C[C@H](O)[C@@H](N)[C@@H]4C)ncn3)c2c1 [Example D55]	14.4
CC(C)Oc1cc2c(-c3cc(N4CCN(c5cnn(C)c5)CC4)ncn3)n[nH]c2cc1F [Example D56]	2.19
CC(C)Oc1cc2c(-c3cc(N4C[C@H](O)[C@@H](O)[C@@H]4C)ncn3)n[nH]c2cc1F [Example D57]	15.5
CC(C)Oc1cc2c(-c3cc(N4CC[C@@H](N)C4)ncn3)n[nH]c2cc1F [Example D58]	7.3
CC(C)Oc1cc2c(-c3cc(N4CC[C@H](N)C4)ncn3)n[nH]c2cc1F [Example D59]	10.4
CC(C)Oc1cc2c(-c3cc(N4C[C@H](N)C[C@@H]4C)ncn3)n[nH]c2cc1F [Example D60]	7.6
CC(C)Oc1cc2c(-c3cc(N4C[C@H](O)[C@@H](N)[C@@H]4C)ncn3)n[nH]c2cc1F [Example D61]	11.7
CC(C)Oc1cc2c(-c3cc(N4CCN(CCO)CC4)ncn3)n[nH]c2cc1F [Example D62]	1.65
CC(C)Oc1cc2c(-c3cc(N4CCN(S(=O)(=O)C5CC5)CC4)ncn3)n[nH]c2cc1F [Example D63]	4.17
CCC(=O)N1CCN(c2cc(-c3n[nH]c4cc(F)c(OC(C)C)cc34)ncn2)CC1 [Example D64]	4.32
CC(C)Oc1cc2c(-c3cc(N4CCN(C(=O)C5CC5)CC4)ncn3)n[nH]c2cc1F [Example D65]	2.98
CCCN1CCN(c2cc(-c3n[nH]c4cc(F)c(OC(C)C)cc34)ncn2)CC1=O [Example D66]	2.77
COCCOC1CCN(c2cc(-c3n[nH]c4cc(F)c(OC(C)C)cc34)ncn2)CC1 [Example D67]	2.1
CCS(=O)(=O)N1CCN(c2cc(-c3n[nH]c4cc(F)c(OC(C)C)cc34)ncn2)CC1 [Example D68]	2.24
